One test has as its system Saccharomyces cerevisiae. Description: S. cerevisiae Caspase-1/ASC signal blockers IC50, NALP1 inhibitor project selectivity test (AID 488863). It is filed as functional, organism-based.
For test [1], the target named is NACHT, LRR and PYD domains-containing protein 1 (Homo sapiens, UniProt Q9C000). The test can be described thus: NALP1 inhibitors in yeast, dose response, luminescent (AID 488860). Format: functional.
Test [2] deals with G-protein coupled receptor 55 (Homo sapiens, UniProt Q9Y2T6). The test can be described thus: inhibition of LPI-stimulated GPR55 beta-arrestin translocation – imaging, U2OS, beta-arrestin-GFP, LPI agonist, primary screen (AID 2013).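 Further: antagonist potency measured as reduced agonist-driven arrestin aggregation.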 It is filed as functional.
The target in test [3] is Voltage-dependent T-type calcium channel subunit alpha-1H (Homo sapiens, UniProt O95180). It is filed as functional.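 Further: channel activity triggered by adding a high calcium stimulation buffer.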
Test [4] relates to Streptococcus sp. 'group A'. Description: Streptococcus pyogenes SK(-)GAS viability under kanamycin – luminescence, BacTiterGlo, confirmation, counter-screen for streptokinase expression inhibitor project, dose response (AID 1900). It is filed as functional, organism-based. A general note: A counterscreen serves to expose hits that act by an unwanted route or on another target.

A further test has as its system Streptococcus. Description: GAS UMAA2166 growth inhibition – luminescence, BacTiterGlo, counter-screen for streptokinase expression inhibitor project, dose response (AID 1915).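 Further: potency for reduction of bacterial viability or growth.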 It is filed as functional, organism-based.
The target in a further test is T1, Caspase-3 (Homo sapiens, UniProt P42574).
T1 sequence (P42574 whole entry): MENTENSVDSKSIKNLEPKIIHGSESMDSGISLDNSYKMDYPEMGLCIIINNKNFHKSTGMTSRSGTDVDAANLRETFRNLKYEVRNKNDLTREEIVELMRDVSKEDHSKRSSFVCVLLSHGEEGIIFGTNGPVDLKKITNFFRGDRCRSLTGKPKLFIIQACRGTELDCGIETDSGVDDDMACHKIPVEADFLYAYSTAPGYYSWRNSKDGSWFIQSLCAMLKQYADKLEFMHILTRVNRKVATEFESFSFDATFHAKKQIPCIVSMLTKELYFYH
The test can be described thus: activation of caspase-3 zymogen – biochemical, absorbance, dose response (AID 489014).

Another test concerns the target T2, Caspase-7 (Homo sapiens, UniProt P55210).
T2 sequence (P55210 whole entry): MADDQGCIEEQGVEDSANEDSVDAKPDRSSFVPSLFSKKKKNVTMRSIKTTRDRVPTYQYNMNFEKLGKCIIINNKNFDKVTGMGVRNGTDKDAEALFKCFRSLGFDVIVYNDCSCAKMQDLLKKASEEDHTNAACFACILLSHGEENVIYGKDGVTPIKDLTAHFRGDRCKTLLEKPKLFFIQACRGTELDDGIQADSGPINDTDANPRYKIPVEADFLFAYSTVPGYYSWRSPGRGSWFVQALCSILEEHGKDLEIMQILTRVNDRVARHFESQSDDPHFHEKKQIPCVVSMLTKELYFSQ
Description: activation of caspase-7 zymogen – biochemical, absorbance, counter-screen for procaspase-3 activator project, dose response (AID 489013).

Test [5] has as its target T3, Protein phosphatase methylesterase 1 (Homo sapiens, UniProt Q9Y570). The test can be described thus: Late stage results from the probe development effort to identify inhibitors of the protein methylesterase PME-1: Gel-based Activity-Based Protein Profiling (ABPP) IC50: Purified enzyme. Format: functional.
Test [6] has as its target T3, Protein phosphatase methylesterase 1. Description: endogenous PME-1 and serine hydrolase inhibition – cell lysate, mouse brain cytosol, FP-rhodamine, gel ABPP, selectivity assay for PME-1 inhibitor project, dose response, panel member PME-1 Assay Panel member description: Inhibition of endogenously expressed PME-1 (AID 2366).
Test [7] addresses T4, Tyrosine-protein phosphatase non-receptor type 7 (Homo sapiens, UniProt P35236).
T4 sequence (P35236 whole entry): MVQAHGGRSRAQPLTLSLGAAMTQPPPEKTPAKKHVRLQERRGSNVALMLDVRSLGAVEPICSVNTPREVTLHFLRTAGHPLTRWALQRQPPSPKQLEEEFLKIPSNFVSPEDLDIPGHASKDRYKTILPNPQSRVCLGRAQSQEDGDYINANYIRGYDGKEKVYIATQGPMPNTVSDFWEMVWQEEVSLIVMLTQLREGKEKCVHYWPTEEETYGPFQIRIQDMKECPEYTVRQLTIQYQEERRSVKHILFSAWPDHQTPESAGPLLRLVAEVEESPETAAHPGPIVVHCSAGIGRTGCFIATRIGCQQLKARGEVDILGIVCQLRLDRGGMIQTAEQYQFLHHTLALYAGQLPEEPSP
Description: redox-active compounds inhibiting HePTP phosphatase – biochemical, fluorescence, mechanism study (AID 2068). It is filed as functional.

The target of test [8] is T5, Short transient receptor potential channel 4 (Mus musculus, UniProt Q9QUQ5).
T5 sequence (Q9QUQ5 whole entry): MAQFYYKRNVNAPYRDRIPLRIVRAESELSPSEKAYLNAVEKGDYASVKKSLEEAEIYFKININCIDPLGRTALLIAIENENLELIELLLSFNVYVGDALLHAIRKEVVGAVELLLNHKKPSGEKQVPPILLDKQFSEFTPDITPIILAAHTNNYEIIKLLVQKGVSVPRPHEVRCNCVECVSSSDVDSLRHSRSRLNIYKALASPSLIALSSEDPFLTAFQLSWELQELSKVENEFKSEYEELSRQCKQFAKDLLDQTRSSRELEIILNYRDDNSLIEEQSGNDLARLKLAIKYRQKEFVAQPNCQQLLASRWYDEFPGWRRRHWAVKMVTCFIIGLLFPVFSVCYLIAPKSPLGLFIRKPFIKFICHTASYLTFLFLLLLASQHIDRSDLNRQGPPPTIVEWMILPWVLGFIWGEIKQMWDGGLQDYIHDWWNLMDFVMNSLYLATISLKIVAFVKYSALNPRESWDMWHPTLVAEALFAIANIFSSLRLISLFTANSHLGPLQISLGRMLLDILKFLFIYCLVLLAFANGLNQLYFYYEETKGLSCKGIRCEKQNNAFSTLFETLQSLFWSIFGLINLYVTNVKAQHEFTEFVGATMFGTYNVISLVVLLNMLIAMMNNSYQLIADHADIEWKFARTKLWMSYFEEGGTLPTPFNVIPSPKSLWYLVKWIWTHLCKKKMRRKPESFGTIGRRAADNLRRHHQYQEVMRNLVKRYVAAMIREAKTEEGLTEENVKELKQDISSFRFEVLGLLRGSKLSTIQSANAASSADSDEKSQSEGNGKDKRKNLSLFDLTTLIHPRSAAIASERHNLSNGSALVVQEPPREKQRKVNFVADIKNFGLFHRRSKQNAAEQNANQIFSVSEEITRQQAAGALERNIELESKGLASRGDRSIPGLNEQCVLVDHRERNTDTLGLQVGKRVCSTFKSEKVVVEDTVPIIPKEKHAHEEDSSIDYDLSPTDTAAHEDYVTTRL
The test can be described thus: potentiation of DAMGO-evoked TRPC4 calcium signal – cell-based, HEK293 TRPC4/mu-opioid, Fluo-4 calcium, EC20 DAMGO, dose response (AID 434941).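 Further: HEK293 cells coexpressing TRPC4 and mu opioid receptor stimulated by EC20 DAMGO.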 It is filed as functional.

Activity calls are given as the source filed them.

T3 sequence (Q9Y570 whole entry): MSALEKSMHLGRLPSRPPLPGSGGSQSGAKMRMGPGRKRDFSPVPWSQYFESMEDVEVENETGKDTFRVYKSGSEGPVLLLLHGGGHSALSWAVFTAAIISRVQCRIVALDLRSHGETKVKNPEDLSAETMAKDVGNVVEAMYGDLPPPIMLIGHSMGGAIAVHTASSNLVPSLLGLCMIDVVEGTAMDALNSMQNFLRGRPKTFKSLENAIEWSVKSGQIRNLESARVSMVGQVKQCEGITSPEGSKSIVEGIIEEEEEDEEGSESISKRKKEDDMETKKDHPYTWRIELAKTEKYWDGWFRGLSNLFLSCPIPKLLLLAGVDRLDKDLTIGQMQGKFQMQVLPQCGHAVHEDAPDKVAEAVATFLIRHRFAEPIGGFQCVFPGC
G-protein coupled receptor 55, sequence (Q9Y2T6 whole entry): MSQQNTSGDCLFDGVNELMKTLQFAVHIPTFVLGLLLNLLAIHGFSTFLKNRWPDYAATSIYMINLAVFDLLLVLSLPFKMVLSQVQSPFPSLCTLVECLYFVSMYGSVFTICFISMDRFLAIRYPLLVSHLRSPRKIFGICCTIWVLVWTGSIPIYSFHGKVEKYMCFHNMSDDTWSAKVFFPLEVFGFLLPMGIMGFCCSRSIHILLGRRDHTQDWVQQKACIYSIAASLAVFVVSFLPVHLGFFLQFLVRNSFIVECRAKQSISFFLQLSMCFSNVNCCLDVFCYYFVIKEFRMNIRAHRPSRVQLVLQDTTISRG
NACHT, LRR and PYD domains-containing protein 1, sequence (Q9C000 1-1212 limits assumed): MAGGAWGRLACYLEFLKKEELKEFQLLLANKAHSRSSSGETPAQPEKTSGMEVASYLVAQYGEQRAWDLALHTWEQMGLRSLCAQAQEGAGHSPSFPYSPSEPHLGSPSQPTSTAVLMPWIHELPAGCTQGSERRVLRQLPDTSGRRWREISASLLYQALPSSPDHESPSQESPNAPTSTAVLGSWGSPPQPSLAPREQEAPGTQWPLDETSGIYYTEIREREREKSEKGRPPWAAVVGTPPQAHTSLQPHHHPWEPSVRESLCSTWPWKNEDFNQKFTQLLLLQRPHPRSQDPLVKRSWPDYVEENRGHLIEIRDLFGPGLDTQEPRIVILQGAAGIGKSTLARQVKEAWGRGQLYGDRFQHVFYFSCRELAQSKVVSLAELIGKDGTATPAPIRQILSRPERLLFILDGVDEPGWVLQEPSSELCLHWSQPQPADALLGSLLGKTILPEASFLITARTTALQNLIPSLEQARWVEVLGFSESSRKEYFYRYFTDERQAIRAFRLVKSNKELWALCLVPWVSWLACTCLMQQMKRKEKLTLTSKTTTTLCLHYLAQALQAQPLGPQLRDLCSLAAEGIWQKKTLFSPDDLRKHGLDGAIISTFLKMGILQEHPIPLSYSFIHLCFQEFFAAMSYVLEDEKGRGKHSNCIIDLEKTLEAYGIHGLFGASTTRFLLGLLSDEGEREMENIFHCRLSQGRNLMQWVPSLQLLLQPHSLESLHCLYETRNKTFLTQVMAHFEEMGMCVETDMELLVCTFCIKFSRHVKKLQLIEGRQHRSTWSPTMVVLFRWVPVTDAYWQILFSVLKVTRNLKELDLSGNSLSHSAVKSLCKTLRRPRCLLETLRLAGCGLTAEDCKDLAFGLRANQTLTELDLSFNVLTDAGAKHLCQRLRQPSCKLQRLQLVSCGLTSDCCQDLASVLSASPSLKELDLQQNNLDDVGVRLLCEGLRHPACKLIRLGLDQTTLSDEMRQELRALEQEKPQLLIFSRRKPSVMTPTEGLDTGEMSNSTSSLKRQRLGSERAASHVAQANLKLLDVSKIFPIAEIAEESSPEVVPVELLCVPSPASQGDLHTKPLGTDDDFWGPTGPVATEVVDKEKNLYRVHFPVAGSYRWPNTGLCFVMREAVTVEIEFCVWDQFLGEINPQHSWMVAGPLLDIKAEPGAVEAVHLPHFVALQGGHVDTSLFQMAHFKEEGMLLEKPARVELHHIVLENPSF
NACHT, LRR and PYD domains-containing protein 1, sequence (Q9C000 1213-1473 limits assumed): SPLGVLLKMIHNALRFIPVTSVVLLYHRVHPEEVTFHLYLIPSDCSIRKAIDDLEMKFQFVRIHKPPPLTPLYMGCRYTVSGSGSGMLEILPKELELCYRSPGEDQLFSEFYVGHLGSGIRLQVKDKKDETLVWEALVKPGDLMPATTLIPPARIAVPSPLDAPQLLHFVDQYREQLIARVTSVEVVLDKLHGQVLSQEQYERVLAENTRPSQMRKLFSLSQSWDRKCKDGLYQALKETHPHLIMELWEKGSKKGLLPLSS
Voltage-dependent T-type calcium channel subunit alpha-1H, sequence (O95180 whole entry): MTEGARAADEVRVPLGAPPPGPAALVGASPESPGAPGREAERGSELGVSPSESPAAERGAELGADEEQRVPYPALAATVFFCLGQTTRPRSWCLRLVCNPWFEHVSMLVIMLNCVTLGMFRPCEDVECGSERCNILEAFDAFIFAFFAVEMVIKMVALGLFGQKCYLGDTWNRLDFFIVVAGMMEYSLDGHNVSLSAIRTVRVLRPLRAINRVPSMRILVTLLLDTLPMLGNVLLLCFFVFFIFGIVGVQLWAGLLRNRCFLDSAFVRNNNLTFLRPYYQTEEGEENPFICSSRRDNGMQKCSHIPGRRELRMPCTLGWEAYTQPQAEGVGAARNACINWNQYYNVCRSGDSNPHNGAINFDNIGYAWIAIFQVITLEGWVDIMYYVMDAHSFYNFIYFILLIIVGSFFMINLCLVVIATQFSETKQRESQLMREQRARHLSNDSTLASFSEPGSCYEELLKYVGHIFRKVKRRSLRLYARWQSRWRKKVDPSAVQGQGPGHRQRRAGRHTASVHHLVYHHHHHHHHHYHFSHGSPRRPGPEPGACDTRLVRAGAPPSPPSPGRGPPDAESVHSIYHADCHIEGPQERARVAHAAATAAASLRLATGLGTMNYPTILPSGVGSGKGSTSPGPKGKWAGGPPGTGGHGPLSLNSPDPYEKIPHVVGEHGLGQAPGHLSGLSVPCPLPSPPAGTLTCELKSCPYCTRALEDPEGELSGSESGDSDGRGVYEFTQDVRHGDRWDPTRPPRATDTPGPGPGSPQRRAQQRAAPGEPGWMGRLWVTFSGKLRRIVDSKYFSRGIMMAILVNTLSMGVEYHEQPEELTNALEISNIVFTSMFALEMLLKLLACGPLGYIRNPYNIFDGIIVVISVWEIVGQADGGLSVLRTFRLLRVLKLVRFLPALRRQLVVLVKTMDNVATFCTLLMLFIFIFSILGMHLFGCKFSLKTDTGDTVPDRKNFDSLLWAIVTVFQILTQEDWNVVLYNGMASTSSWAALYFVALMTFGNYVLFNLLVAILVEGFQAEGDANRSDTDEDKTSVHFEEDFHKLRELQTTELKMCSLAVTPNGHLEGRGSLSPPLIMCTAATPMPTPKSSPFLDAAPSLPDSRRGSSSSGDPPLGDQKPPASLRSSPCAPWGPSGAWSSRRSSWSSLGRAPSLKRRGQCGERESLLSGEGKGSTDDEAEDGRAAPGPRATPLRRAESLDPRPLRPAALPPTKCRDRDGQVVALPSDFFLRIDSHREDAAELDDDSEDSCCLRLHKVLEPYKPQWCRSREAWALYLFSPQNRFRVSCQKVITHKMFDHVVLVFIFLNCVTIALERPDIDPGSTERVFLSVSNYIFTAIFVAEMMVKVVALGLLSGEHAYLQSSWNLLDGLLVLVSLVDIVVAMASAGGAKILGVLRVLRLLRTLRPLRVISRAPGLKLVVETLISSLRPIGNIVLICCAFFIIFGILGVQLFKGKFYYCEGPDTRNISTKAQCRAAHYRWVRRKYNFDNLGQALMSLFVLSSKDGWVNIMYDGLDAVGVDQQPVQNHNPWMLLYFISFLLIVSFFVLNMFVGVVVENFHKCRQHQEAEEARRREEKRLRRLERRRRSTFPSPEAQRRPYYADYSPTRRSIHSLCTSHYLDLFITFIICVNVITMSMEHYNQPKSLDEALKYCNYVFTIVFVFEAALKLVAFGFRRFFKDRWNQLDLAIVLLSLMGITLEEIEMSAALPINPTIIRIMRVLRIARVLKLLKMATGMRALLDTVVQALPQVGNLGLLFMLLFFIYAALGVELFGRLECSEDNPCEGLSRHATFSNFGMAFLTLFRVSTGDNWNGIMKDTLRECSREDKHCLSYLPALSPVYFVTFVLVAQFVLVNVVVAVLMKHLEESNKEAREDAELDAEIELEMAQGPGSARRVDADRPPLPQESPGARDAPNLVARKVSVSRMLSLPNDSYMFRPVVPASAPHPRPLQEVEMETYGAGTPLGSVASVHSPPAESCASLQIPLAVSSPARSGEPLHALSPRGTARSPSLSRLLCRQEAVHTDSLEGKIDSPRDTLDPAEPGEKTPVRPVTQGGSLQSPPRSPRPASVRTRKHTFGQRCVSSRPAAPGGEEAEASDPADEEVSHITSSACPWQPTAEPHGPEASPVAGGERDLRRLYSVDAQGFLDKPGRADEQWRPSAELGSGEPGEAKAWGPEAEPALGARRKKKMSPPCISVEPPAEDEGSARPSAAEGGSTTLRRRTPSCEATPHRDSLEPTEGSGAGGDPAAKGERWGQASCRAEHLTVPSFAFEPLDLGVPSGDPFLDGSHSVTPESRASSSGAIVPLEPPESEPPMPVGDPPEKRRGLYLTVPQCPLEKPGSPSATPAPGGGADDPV

With `CCCOc1ccccc1NC(=O)/C=C/C(N)=O`, the values for the half-maximal inhibitory concentration (IC50) (in the test with Saccharomyces cerevisiae; in test [1]) were 5.33 µM (active) and 8.5 µM (active), respectively.

On to `O=C(CSc1nc2ccccc2o1)Nc1ccccc1N1CCCCCC1`, for which, in test [2], the 50% inhibitory concentration (IC50) (usually the concentration that gives 50% inhibition) is 2.06 µM (active). Also, in test [3], the half-maximal effective concentration (EC50) (usually the concentration needed to bring the measured effect to its halfway point) is 8.41 µM (active).

In the case of `O=C1C2C(c3ccccc3)=NN(c3ccccc3)C2C(=O)N1c1ccccc1` (configuration not stated), the EC50 in [4] was 1.02 µM (active); in the test with Streptococcus, 5.11 µM (active); on Caspase-3 it was > 85.3 µM (inactive); at Caspase-7, > 85.3 µM (inactive).

With `CS(=O)(=O)/C(=C/c1cccn1S(=O)(=O)c1ccccc1)CN`, the IC50 in test [5] is > 20 µM (not active); in test [6] it was > 20 µM (inactive).

On to `CNC(=O)Nc1ccc2nc(-c3ccco3)c(-c3ccco3)nc2c1`, for which the IC50 in test [7] is 816 nM (active).

`Cc1ccc(Cn2c(=N)c(C(=O)NC3CCCC3)cc3c(=O)n4ccccc4nc32)cc1`: the 50% effective concentration (EC50) in test [8] was 2.11 µM (active).

The record behind these values is ChEMBL document CHEMBL1201862, “PubChem BioAssay data set” (2004).
